In ChEMBL document CHEMBL1201862, “PubChem BioAssay data set” (2004):
Active and inactive are the calls of the source.

Assays:
[1] = target: Procathepsin L (Homo sapiens, UniProt P07711); test: CTSL1 protease inhibition – biochemical, QFRET, 1536-well, counter-screen for M1/M17 aminopeptidase inhibitor project, dose response (AID 2214)
[2] = target: T1, Leucine aminopeptidase (Plasmodium falciparum 3D7, UniProt Q8IL11); test: P. falciparum M17LAP inhibitors, primary screen, biochemical, fluorogenic H-Leu-NHMec substrate, 1536-well (AID 1619); type: functional
T1 sequence (Q8IL11 whole entry): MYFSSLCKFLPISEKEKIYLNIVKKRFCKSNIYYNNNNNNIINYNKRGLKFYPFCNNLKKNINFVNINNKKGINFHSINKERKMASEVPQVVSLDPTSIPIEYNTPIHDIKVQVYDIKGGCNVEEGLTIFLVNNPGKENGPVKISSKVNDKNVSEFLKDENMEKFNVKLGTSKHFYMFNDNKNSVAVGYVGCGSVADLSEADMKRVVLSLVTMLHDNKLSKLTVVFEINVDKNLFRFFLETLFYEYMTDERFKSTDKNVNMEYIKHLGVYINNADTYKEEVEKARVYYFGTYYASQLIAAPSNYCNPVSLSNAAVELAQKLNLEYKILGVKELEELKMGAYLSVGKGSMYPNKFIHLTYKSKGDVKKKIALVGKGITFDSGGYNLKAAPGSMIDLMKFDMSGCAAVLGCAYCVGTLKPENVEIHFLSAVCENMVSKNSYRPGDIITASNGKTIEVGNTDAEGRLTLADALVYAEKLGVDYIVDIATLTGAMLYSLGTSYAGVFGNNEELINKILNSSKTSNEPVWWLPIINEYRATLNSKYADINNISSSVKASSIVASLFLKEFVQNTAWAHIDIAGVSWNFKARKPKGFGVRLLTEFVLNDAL

[3] = target: T2, Protein skinhead-1 (Caenorhabditis elegans, UniProt P34707); type: functional
T2 sequence (P34707 whole entry): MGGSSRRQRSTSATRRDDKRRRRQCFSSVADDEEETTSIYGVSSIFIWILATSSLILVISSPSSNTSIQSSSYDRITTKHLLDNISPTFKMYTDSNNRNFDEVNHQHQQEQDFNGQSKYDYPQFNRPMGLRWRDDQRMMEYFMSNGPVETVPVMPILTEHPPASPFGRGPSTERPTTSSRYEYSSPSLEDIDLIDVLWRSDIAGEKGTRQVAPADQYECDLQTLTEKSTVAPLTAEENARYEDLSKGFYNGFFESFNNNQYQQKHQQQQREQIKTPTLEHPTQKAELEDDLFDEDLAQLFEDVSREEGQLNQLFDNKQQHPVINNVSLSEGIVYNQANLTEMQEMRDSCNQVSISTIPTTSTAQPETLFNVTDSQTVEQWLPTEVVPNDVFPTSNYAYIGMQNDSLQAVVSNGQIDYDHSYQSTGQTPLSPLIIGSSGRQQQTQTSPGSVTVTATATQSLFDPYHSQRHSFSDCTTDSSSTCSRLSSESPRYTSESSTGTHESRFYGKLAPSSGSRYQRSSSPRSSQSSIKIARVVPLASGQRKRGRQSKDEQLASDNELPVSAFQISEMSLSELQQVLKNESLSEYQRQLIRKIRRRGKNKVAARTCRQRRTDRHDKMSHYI

[4] = target: T3, Aspartyl aminopeptidase (Plasmodium falciparum 3D7, UniProt Q8I2J3); test: Counterscreen for inhibitors of M1 and M17 aminopeptidases: QFRET-based biochemical high throughput dose response assay for inhibitors of the Plasmodium falciparum M18 Aspartyl Aminopeptidase (PFM18AAP). [Related PubChem assays: 1619 (Screening assay (M17LAP inhibitors).), 1445 (Screening assay (M1AAP inhibitors).)]
T3 sequence (Q8I2J3 whole entry): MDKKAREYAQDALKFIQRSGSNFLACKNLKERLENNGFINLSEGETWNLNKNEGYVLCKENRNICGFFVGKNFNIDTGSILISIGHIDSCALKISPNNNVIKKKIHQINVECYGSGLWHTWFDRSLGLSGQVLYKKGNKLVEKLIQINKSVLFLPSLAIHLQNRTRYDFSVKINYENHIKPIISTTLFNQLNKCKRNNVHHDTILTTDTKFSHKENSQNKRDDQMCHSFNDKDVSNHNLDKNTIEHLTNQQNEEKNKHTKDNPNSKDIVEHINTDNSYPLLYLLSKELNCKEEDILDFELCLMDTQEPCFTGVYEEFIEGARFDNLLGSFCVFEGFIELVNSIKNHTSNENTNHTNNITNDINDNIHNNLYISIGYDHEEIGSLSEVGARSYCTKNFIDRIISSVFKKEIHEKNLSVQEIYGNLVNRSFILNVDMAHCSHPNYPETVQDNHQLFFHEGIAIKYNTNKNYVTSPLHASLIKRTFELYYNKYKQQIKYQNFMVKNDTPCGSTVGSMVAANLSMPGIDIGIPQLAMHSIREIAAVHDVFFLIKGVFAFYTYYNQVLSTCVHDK

[5] = target: Dual specificity protein phosphatase 6 (Rattus norvegicus, UniProt Q64346); test: inhibition of rat DUSP6 enzyme activity – biochemical, in vitro, primary screen (AID 425)
[6] = target: Prothrombin (Homo sapiens, UniProt P00734); test: Thrombin 1536 HTS Dose Response Confirmation. [Related pubchem assays: 1046 (Thrombin 1536 HTS; hits were confirmed in this assay)]; type: functional
[7] = target: T4, Bcl-2-related protein A1 (Mus musculus, UniProt Q07440); test: Bfl-1 binding inhibitors, SAR follow-up, biochemical, fluorescence polarization (AID 1070)
T4 sequence (Q07440 whole entry): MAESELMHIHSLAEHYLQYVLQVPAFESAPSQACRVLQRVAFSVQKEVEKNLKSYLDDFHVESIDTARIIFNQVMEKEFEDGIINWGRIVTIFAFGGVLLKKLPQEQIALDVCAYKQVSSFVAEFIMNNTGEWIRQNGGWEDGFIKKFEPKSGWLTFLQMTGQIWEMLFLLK

[8] = target: T4, Bcl-2-related protein A1; test: small-molecule antagonists of Bfl-1/BH3 interaction – biochemical, TR-FRET, mouse Bfl-1, confirmation (AID 621);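 note: TR-FRET binding of GST-Bfl-1 to FITC-labelled Bid peptide via terbium antibody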
[9] = target: Cytochrome P450 2C19 (Homo sapiens, UniProt P33261); test: qHTS Assay for Inhibitors and Substrates of Cytochrome P450 2C19. [Related pubchem assays: 410 ]; type: ADME; settings: read-out: Potency
[10] = antibacterial activity against E. coli NEB5alpha – luminescence, counter-screen for MEX-5/POS-1 RNA-binding inhibitor project, dose response (AID 1959); type: functional
[11] = target: T5, Zinc finger protein mex-5 (Caenorhabditis elegans, UniProt Q9XUB2); test: potency of MEX-5 RNA-binding blockers – biochemical, C. elegans, fluorescence polarization, dose response (AID 1960)
T5 sequence (Q9XUB2 whole entry): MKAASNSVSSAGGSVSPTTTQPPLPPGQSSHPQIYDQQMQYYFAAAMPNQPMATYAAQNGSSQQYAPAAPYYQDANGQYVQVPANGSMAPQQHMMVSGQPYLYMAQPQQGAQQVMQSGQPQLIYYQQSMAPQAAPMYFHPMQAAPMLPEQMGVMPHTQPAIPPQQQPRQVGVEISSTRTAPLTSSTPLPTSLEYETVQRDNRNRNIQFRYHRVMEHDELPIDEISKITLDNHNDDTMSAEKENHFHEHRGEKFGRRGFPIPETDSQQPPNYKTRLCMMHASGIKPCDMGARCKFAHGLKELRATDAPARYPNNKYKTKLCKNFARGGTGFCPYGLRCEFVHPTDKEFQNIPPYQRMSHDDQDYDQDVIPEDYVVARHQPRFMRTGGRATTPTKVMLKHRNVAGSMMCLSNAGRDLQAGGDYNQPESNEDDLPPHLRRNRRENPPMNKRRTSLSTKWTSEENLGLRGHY

[12] = target: T6, RNA-binding protein pos-1 (Caenorhabditis elegans, UniProt G5EF15); test: disruptors of C. elegans POS-1 RNA interaction – biochemical, fluorescence polarization, dose response (AID 1964);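 note: purified POS-1 fused to maltose binding protein made in E. coli; potency of compounds blocking POS-1 binding to fluorescent RNA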
T6 sequence (G5EF15 whole entry): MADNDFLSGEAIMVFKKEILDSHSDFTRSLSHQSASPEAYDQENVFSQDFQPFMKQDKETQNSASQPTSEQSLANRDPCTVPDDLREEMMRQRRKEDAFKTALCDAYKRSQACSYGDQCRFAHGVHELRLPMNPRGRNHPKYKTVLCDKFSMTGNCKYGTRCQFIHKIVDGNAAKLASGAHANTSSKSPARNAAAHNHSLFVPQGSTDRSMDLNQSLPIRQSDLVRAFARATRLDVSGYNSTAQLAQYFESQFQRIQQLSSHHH

Dual specificity protein phosphatase 6, sequence (Q64346 whole entry): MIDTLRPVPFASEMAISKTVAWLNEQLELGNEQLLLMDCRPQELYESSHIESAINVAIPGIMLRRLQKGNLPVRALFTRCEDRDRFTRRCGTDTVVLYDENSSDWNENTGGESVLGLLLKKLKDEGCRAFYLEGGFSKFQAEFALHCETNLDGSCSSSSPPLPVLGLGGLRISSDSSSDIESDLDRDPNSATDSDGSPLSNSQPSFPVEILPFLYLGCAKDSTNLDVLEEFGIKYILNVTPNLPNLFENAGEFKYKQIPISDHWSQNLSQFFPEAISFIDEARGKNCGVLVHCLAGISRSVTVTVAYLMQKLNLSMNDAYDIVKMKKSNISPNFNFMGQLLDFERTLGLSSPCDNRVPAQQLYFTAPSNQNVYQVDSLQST
Cytochrome P450 2C19, sequence (P33261 whole entry): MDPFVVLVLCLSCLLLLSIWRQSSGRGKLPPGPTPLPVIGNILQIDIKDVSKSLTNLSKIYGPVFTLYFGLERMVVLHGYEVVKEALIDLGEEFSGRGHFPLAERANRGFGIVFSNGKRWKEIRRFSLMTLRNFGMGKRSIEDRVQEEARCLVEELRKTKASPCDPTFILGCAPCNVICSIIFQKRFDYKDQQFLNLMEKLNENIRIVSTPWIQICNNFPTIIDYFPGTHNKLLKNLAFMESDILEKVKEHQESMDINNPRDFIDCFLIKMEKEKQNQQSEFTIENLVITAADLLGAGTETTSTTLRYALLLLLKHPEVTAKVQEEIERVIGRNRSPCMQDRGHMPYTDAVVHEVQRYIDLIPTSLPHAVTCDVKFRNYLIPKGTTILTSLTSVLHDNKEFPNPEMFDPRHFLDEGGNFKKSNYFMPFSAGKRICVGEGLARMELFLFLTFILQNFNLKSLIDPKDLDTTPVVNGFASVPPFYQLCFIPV
Procathepsin L, sequence (P07711 whole entry): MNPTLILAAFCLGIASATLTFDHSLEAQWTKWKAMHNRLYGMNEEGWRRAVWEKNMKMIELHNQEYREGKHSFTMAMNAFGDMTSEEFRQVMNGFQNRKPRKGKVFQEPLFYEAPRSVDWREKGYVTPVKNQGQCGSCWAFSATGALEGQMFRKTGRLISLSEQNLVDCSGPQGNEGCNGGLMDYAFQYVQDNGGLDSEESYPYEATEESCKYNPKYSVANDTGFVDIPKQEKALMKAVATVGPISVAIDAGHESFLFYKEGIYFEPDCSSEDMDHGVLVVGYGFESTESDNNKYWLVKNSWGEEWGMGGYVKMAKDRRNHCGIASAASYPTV

With `O=C(CSc1nc(O)cc(O)n1)Nc1ccc2c(c1)CCC2` the IC50 [1] was > 59.6 µM (not active), the IC50 [2] was 2.01 µM (active) and the IC50 [3] was > 100 µM (inactive). For the same compound, the IC50 [4] was > 73.5 µM (not active).

With `CCCCOc1ccccc1P(=O)(O)CP(=O)(c1ccccc1)c1ccccc1` the IC50 [5] was > 100 µM (not active).

For `COc1ccc(NC(=O)Cc2ccccc2F)cn1`, the IC50 [6] was > 50 µM (not active).

With `COc1ncccc1-c1nnn(-c2ccc(Cl)nc2)n1` the IC50 [7] was > 100 µM (not active) and the IC50 [8] was > 100 µM (not active).

For `C[C@@]12CCC(=O)C=C1CC[C@H]1[C@H]3CC[C@](O)(C(=O)CO)[C@]3(C)CC[C@@H]12`, the AC50 [9] was 10 µM (inconclusive).

With `NC(=O)c1ccccc1N/C=C/C(=O)c1ccc(F)cc1` the EC50 [10] was 23 µM (active), the EC50 [11] was > 300 µM (not active) and the EC50 [12] was > 300 µM (not active).
